Measurements as given in publication PMC12302229, “Synergy of triazolyl substituents at C1 and C3 of galactose for high-affinity and selective galectin-4C inhibition” (RSC Chemical Biology, 2025).
Values joined by “and” are separate entries in the source; they are usually repeats but may differ in a detail not shown here. Identical values can stand only once. Like-named read-outs stand apart in the source and are kept apart here.

Columns and labels:
galectin-1 [1] = molecular target: T1, galectin-1 (Homo sapiens, UniProt P09382); test: competitive fluorescence polarization assay, galectin-1; format: binding; conditions: for Kd: fluorescence polarization, Kd and SEM from 3–6 single point measurements, read-out: Dissociation constants, Galectin-1
T1 construct: made in house
T1 sequence (P09382 whole entry): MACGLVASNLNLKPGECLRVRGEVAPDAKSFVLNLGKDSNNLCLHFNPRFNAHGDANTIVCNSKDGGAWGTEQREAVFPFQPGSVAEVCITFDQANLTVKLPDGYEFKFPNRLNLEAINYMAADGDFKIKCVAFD
Procedure: (§1) Affinities of 1c–1z for galectin-1, -3, -4C, -4N, -7, -8C, -8N, -9C, and -9N were measured using an established fluorescence polarization assay[57] with reported probes and conditions.[19] […]
(§2) Fluorescence polarization experiments
(§3) Human galectin-11 and galectin-32 were expressed and purified as earlier described. Fluorescence polarization experiments were performed on a PheraStarFS plate reader with software PHERAstar Mars version 2.10 R3 (BMG, Offenburg, Germany). Specific experimental conditions were a galectin-1 concentration of 0.5 µM together with the fluorescent probe (3,3’-dideoxy-3-[4-(fluorescein-5-yl-carbonylaminomethyl)-1H-1,2,3-triazol-1-yl]-3’-(3,5-di-methoxybenzamido)-1,1’-sulfanediyl-di-β-D-galactopyranoside 1 concentration of 20 nM and a galectin-3 concentration of 0.2 µM together with the fluorescent probe (3,3’-dideoxy-3-[4-(fluorescein-5-yl-carbonylaminomethyl)-1H-1,2,3- […]
(§4) triazol-1-yl]-3’-(3,5-di-methoxybenzamido)-1,1’-sulfanediyl-di-β-D-galactopyranoside) concentration of 20 nM, respectively. Inhibitors were dissolved in dimethylsulfoxide (analytical grade) to a concentration of 20 mM, diluted with PBS to 3–6 different concentrations, and tested in duplicate twice for galectin affinity using a competitive fluorescence polarization assay as earlier described.3 The highest inhibitor concentrations tested were 1 mM due to solubility limitations at higher concentration. Dissociation constants average and SEM were calculated from two to eight single point measurements showing between 20–80% inhibition. […]

galectin-4C [2] = molecular target: T2, galectin-4C (Homo sapiens, UniProt P56470); test: competitive fluorescence polarization assay, galectin-4C; format: binding; conditions: for Kd: fluorescence polarization, x/y cells = only two data points revealed inhibition, both shown, > values estimated, no apparent binding at highest concentration, read-out: Dissociation constants, Galectin-4C
T2 construct: made in house; host or cells: E. coli BL-21 (DE3)
T2 sequence (P56470 185-323): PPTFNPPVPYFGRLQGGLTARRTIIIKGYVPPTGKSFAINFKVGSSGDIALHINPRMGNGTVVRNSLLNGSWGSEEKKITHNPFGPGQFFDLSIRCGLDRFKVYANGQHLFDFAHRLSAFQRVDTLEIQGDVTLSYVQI
Procedure: Affinities of 1c–1z for galectin-1, -3, -4C, -4N, -7, -8C, -8N, -9C, and -9N were measured using an established fluorescence polarization assay[57] with reported probes and conditions.[19]
Recombinant human galectin-4 C-terminal carbohydrate recognition domain was expressed and purified as previously reported.[57,70] Briefly, BL-21 (DE3) E. coli cells containing galectin-4C (amino acid sequence 185–323) was expressed, lysed by sonication and purified by affinity chromatography on a lactosyl-Sepharose column. Galectin-4C protein was eluted using 50 mM β-lactose in PBS, pH 7.4. Galectin-4C was then further gel purified using a Superdex 200/60 column (GE Healthcare) previously equilibrated in PBS, pH 7.4. The peak fractions collected containing galectin-4C were pooled and concentrated to 6.5 mg mL^−1 using an AmiconUltra 3K molecular weight cut-off centrifugal concentrator (Millipore, Billerica, MA, USA) and used directly in crystallisation studies. […]
as §4

galectin-3 [3] = molecular target: T3, galectin-3 (Homo sapiens, UniProt P17931); test: competitive fluorescence polarization assay, galectin-3; conditions: Kd and SEM from 3–6 single point measurements, > values estimated, no apparent binding at highest concentration, read-out: Dissociation constants, Galectin-3
T3 construct: made in house
T3 sequence (P17931 whole entry): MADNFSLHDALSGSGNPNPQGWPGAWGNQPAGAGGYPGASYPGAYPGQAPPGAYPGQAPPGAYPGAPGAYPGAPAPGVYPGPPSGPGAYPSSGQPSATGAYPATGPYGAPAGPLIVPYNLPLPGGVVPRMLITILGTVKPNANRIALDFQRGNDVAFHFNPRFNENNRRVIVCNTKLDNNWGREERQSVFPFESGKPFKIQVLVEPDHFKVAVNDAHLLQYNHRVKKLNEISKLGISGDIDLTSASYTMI
Procedure: as §1, §2, §3, §4

galectin-4C [4] = molecular target: T2, galectin-4C; conditions: cited from earlier work
galectin-1 [5] = molecular target: T1, galectin-1; conditions: cited from earlier work
galectin-3 [6] = molecular target: T3, galectin-3; conditions: cited from earlier work
galectin-4N = molecular target: T4, galectin-4N (Homo sapiens, UniProt P56470); test: competitive fluorescence polarization assay, galectin-4N; format: binding; conditions: Kd and SEM from 3–6 single point measurements, read-out: Dissociation constants, Galectin-4N
T4 construct: called “N” for the N-terminal CRD and “C” for the C-terminal
T4 sequence (P56470 19-150 limits assumed): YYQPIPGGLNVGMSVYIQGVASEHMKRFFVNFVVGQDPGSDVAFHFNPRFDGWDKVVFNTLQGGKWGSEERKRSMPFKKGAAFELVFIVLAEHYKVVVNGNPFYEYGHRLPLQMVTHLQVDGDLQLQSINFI
Procedure: as §1, §4

[7] = Chart 1, known C1-galactosyl inhibitors, read-out: affinity, Galectin-4C
[8] = Table 1 reference compounds, read-out: Dissociation constants, Galectin-1
[9] = Table 1 reference compounds, read-out: Dissociation constants, Galectin-3
[10] = Chart 1, known C1-galactosyl inhibitors, read-out: affinity, Galectin-1
[11] = Chart 1, known C1-galactosyl inhibitors, read-out: affinity, Galectin-3

Row | SMILES | Kd (galectin-1 [1]) | Kd (galectin-4C [2]) | Kd (galectin-3 [3]) | other results
1 | OC[C@H]1O[C@@H](c2cn(-c3ccc(Cl)c(Cl)c3)nn2)[C@H](O)[C@@H](O)[C@H]1O [Compound 1p] | 1300 ± 200 µM | 2300 µM and 2500 µM | 660 ± 53 µM | 
2 | OC[C@H]1O[C@@H](c2cn(-c3ccc(Cl)cc3)nn2)[C@H](O)[C@@H](O)[C@H]1O [Compound 1b] |  |  |  | Kd (galectin-4C [4]; [7]): 760 µM; Kd (galectin-1 [5]; [8]): 340 µM; Kd (galectin-3 [6]; [9]): 1700 µM
3 | CC(=O)c1cccc(-n2cc([C@@H]3O[C@H](CO)[C@H](O)[C@H](O)[C@H]3O)nn2)c1 [Compound 1y] | 1300 ± 260 µM | 2000 µM and 2700 µM | 1000 ± 200 µM | 
4 | OC[C@H]1O[C@@H](c2cn(-c3ccc(Cl)cn3)nn2)[C@H](O)[C@@H](O)[C@H]1O [Compound 1r] | 650 ± 3 µM | > 2000 µM | 490 ± 6 µM | 
5 | OC[C@H]1O[C@@H](c2cn(-c3cccc(Br)c3)nn2)[C@H](O)[C@@H](O)[C@H]1O [Compound 1d, 4-(1-Deoxy-β-D-galactopyranosyl)-1-(3-bromophenyl)-1H-1,2,3-triazole] | 1400 ± 95 µM | > 2000 µM | 1600 ± 30 µM | 
6 | OC[C@H]1O[C@@H](Cn2cc(-c3ccc(F)cc3)nn2)[C@H](O)[C@@H](O)[C@H]1O [Compound 3] |  |  |  | Kd (galectin-4C [4]; [7]): 1200 µM; Kd (galectin-1 [5]; [10]): 170 µM; Kd (galectin-3 [6]; [11]): 710 µM
7 | OC[C@H]1O[C@@H](c2cn(-c3c(F)cccc3F)nn2)[C@H](O)[C@@H](O)[C@H]1O [Compound 1k] | 1300 ± 190 µM | > 2000 µM | 1200 ± 90 µM | 
8 | CC(=O)c1ccc(-n2cc([C@@H]3O[C@H](CO)[C@H](O)[C@H](O)[C@H]3O)nn2)cc1 [Compound 1x] | 970 ± 65 µM | 1900 ± 550 µM | 1200 ± 83 µM | 
9 | OC[C@H]1O[C@@H](c2cn(-c3ccc(Br)cc3)nn2)[C@H](O)[C@@H](O)[C@H]1O [Compound 1c, 4-(1-Deoxy-β-D-galactopyranosyl)-1-(4-bromophenyl)-1H-1,2,3-triazole] | 140 ± 25 µM | 1400 µM and 1500 µM | 1400 ± 340 µM | selectivity for galectin-1 over galectin-3 (galectin-1 [1]; ratio of Kd): tenfold
10 | CS(=O)(=O)c1cccc(-n2cc([C@@H]3O[C@H](CO)[C@H](O)[C@H](O)[C@H]3O)nn2)c1 [Compound 1w] | 1400 ± 85 µM | > 2000 µM | 1400 ± 70 µM | 
11 | O=[N+]([O-])c1cccc(-n2cc([C@@H]3O[C@H](CO)[C@H](O)[C@H](O)[C@H]3O)nn2)c1 [Compound 1j] | 1800 ± 64 µM | > 2000 µM | 1000 ± 23 µM | 
12 | OC[C@H]1O[C@@H](Cn2cc(-c3ccc(C(F)(F)F)cc3)nn2)[C@H](O)[C@@H](n2cc(-c3ccccc3)nn2)[C@H]1O [Compound 24b, 1-((4-(1-Phenyl-1H-1,2,3-triazol-4-yl)-1,3-dideoxy-β-D-galactopyranosyl)methyl)-4-(4-(trifluoromethyl)phenyl)-1H-1,2,3-triazole] | 440 ± 68 µM | 12 ± 1.7 µM | 720 ± 78 µM | Kd (galectin-4N): 760 ± 32 µM; galectin-4C selectivity over other galectins (galectin-4C [2]; ratio of Kd): twenty-onefold and up to thirty-sevenfold
13 | CS(=O)(=O)c1ccc(-n2cc([C@@H]3O[C@H](CO)[C@H](O)[C@H](O)[C@H]3O)nn2)cc1 [Compound 1v] | 780 ± 43 µM | 2900 µM and 3500 µM | 690 ± 70 µM | 
14 | OC[C@H]1O[C@@H](c2cn(-c3ccccn3)nn2)[C@H](O)[C@@H](O)[C@H]1O [Compound 1z] | 150 ± 17 µM | 2600 µM and 3100 µM | 880 ± 100 µM | 
15 | OC[C@H]1O[C@@H](c2cn(-c3cccc(I)c3)nn2)[C@H](O)[C@@H](O)[C@H]1O [Compound 1f] | 1300 ± 220 µM |  | > 1000 µM | 
16 | OC[C@H]1O[C@@H](c2cn(-c3ccc4c(c3)CCC4)nn2)[C@H](O)[C@@H](O)[C@H]1O [Compound 1u] | 2100 ± 73 µM | 2100 ± 490 µM | 1400 ± 160 µM | 

Row | SMILES | Kd (galectin-1 [1]) | Kd (galectin-4C [2]) | Kd (galectin-3 [3]) | other results
17 | OC[C@H]1O[C@@H](c2cn(-c3ccc(C(F)(F)F)cc3)nn2)[C@H](O)[C@@H](O)[C@H]1O [Compound 1g] | 1300 ± 320 µM | 2300 µM and 2600 µM | 1200 ± 31 µM | 
18 | OC[C@H]1O[C@@H](c2cn(-c3ccc(Cl)cc3F)nn2)[C@H](O)[C@@H](O)[C@H]1O [Compound 1l] | 300 ± 20 µM | > 2000 µM | 1200 ± 110 µM | 
19 | OC[C@H]1O[C@@H](c2cn(-c3ccccc3F)nn2)[C@H](O)[C@@H](O)[C@H]1O [Compound 1a] |  |  |  | Kd (galectin-4C [4]; [7]): 780 µM; Kd (galectin-1 [5]; [8]): 170 µM; Kd (galectin-3 [6]; [9]): 880 µM
20 | OC[C@H]1O[C@@H](c2cn(-c3ccc(-c4ccccc4)cc3)nn2)[C@H](O)[C@@H](O)[C@H]1O [Compound 1t] | 970 ± 25 µM | 880 ± 82 µM | 2000 ± 270 µM | 
21 | OC[C@H]1O[C@@H](c2cn(-c3ccc(I)cc3)nn2)[C@H](O)[C@@H](O)[C@H]1O [Compound 1e] | 460 ± 50 µM |  | > 1000 µM | 
22 | OC[C@H]1O[C@@H](c2cnc(-c3cccc4ccccc34)o2)[C@H](O)[C@@H](O)[C@H]1O [Compound 2] |  |  |  | Kd (galectin-4C [4]; [7]): 550 µM; Kd (galectin-1 [5]; [10]): 490 µM; Kd (galectin-3 [6]; as printed in the running text, read-out: galectin-3 affinity): 90 µM
23 | OC[C@H]1O[C@@H](c2cn(-c3cccc(C(F)(F)F)c3)nn2)[C@H](O)[C@@H](O)[C@H]1O [Compound 1h] | 1500 ± 62 µM | 1500 µM and 2200 µM | 1300 ± 69 µM | 
24 | OC[C@H]1O[C@@H](c2cn(-c3ccc(Br)cc3F)nn2)[C@H](O)[C@@H](O)[C@H]1O [Compound 1o] | 310 ± 29 µM | > 2000 µM | 770 ± 89 µM | 
25 | Cc1ccc(-n2cc([C@@H]3O[C@H](CO)[C@H](O)[C@H](O)[C@H]3O)nn2)cc1Cl [Compound 1q] | 1200 ± 240 µM | > 2000 µM | 1400 ± 38 µM | 
26 | OC[C@H]1O[C@@H](Cn2cc(-c3ccc(C(F)(F)F)cc3)nn2)[C@H](O)[C@@H](O)[C@H]1O [Compound 4] |  |  |  | Kd (galectin-4C [4]; [7]): > 900 µM; Kd (galectin-1 [5]; [10]): 240 µM; Kd (galectin-3 [6]; [11]): 830 µM
27 | OC[C@H]1O[C@@H](c2cnc(-c3cccc4ccccc34)o2)[C@H](O)[C@@H](n2cc(-c3ccccc3)nn2)[C@H]1O [Compound 18] |  | 2.3 ± 0.4 µM |  | selectivity for galectin-4C over galectin-3 (galectin-4C [2]; ratio of Kd): 4 fold
28 | CO[C@@H]1O[C@H](CO)[C@@H](O[C@@H]2O[C@H](CO)[C@H](O)[C@H](O)[C@H]2O)[C@H](O)[C@H]1O [β-Me Lac, methyl β-lactoside] |  |  |  | Kd (galectin-4C [4]; Table 1 reference saccharides, read-out: Dissociation constants, Galectin-4C): 2900 µM; Kd (galectin-1 [5]; Table 1 reference saccharides, read-out: Dissociation constants, Galectin-1): 190 µM; Kd (galectin-3 [6]; Table 1 reference saccharides, read-out: Dissociation constants, Galectin-3): 220 µM
29 | O=[N+]([O-])c1ccc(-n2cc([C@@H]3O[C@H](CO)[C@H](O)[C@H](O)[C@H]3O)nn2)cc1 [Compound 1i] | 400 ± 5 µM | 910 ± 46 µM | 1500 ± 67 µM | 
30 | OC[C@H]1O[C@@H](c2cn(-c3cccc(Cl)c3F)nn2)[C@H](O)[C@@H](O)[C@H]1O [Compound 1n] | 1100 ± 48 µM | > 2000 µM | > 1000 µM | 
31 | OC[C@H]1O[C@@H](c2cn(-c3nccs3)nn2)[C@H](O)[C@@H](O)[C@H]1O [Compound 1s] | 980 ± 7 µM | > 2000 µM | 910 ± 92 µM | 
32 | OC[C@H]1O[C@@H](c2cn(-c3cc(Cl)ccc3F)nn2)[C@H](O)[C@@H](O)[C@H]1O [Compound 1m] | 580 ± 12 µM | 1300 ± 260 µM | 870 ± 140 µM | 
